{"source": "patent EP0275207A2", "about": "“Pharmaceutical and veterinary compositions” (priority 1987, dated 1988)", "key": {"[1]": {"test_system": "Trichophyton rubrum", "assay": "7 day growth test in phosphate buffered saline solution (ED 50 and ED 90)", "format": "cell-based", "details": "for EDso and ED90 results against T. Rubrum: compared to those obtained using bis THP phosphite and THP sulphate; for Mg. growth (% of control) / Mg. growth dry weight / ED50 / ED90: 7 day test; for ED50 / ED90: ppm (Active Compound)", "source_text": "The activity of 50% aqueous bis THP phosphite, 50% aqueous mono THP phosphite and 80% aqueous THP sulphate against Trichophyton rubrum were compared in a 7 day test in phosphate buffered saline solution to determine ED 50 and ED 90 values."}, "[2]": {"test_system": "protozoal infection", "assay": "Treatment of fish pond with an infected Koi Carp", "format": "in vivo", "details": "100 ppm dosed to the pond, concentration of 27 ppm in the pond water", "method": "100 ppm of 75% aqueous THP sulphate was dosed to the pond via the oxygenating venturi to provide a concentration of 27 ppm in the pond water."}, "[3]": {"test_system": "bacteria", "assay": "Time-kill test (surviving organisms by plate count) in phosphate buffered saline, bacterial strains", "format": "cell-based", "details": "within 2 to 6 hours of exposure", "method": "The following bacterial strains were used in the tests: • Streptococcus pyogenes NCTC 8198 • Streptococcus faecalis ATCC 19433 • Sarcina lutea ATCC 9341 • Proteus mirabilis NCTC 8559 • Proteus vulgaris NCTB 4175 • Klebsiella pneumoniae NCTC 10341 • Salmonella typhimurium NCTB 10258 • Salmonella enteritidis NCTC 6676 • Shigella boydii NCTC 9328 • Bacillus subtilus ATCC 6633 • Bacillus cereus ATCC 11778\nInocula for the bacterial strains were prepared from cultures on Tryptone soy agar (TSA, Oxoid CM 131) incubated at 37° C for 24 hours. […]\n(§1) The test solutions as described in (5) above were prepared in 50 ml volumes and the test solutions plus a 100 ml volume of PBS (as control) were inoculated with appropriate volumes (0.5 to 1 ml) of the inocula prepared as described in (2) above, shaken to evenly distribute the inoculum and held at room temperature. Immediatedly after inoculation (time 0) and then at pre-determined times 0.1 ml aliquots were removed from the test and control solutions for counting. […]\n(§2) Developing colonies were then counted and by reference to the appropriate dilution ratios the numbers of surviving organisms at each compound concentration/time point were calculated."}, "[4]": {"test_system": "fungi", "assay": "Time-kill test (surviving organisms by plate count) in phosphate buffered saline, yeast and fungal strains", "format": "cell-based", "details": "after 24 hours", "method": "The following yeast and fungal strains were used in the tests: • Candida albicans ATCC 10231 • Candida tropicalis NCPF 3111 • Absidia corymbifera NCPF 2001 • Sporotrichum schenkii NCPF 3182 • Trichophyton rubrum NCPF 197 • Trichophyton mentagrophytes NCPF 351 • Microsporum Canis NCPF 351 • Penicillium funicolosum CMI 114933 • Aureobasidium pullulans CMI 45533\nInocula for the two yeast (Candida) strains wre prepared from cultures on Sabouraud dextrose agar (SDA Oxide CM 141) incubated at 37°C for 48 hours. Surface growth of the organisms was suspended in sterile physiological saline and standardised by plate counts to contain approximatedly 10^6 cfu/ml. […]\nas §1, §2"}, "[5]": {"test_system": "Naegleria", "assay": "In vitro kill of protozoon", "format": "cell-based"}}, "data": [{"compound": "bis THP phosphate", "values": [{"measurement": "EDso and ED90 results against T. Rubrum", "setting": "[1]", "result": "substantially similar"}]}, {"compound": "THP borate", "values": [{"measurement": "EDso and ED90 results against T. Rubrum", "setting": "[1]", "result": "substantially similar"}]}, {"compound": "THP acetate", "values": [{"measurement": "EDso and ED90 results against T. Rubrum", "setting": "[1]", "result": "substantially similar"}]}, {"compound": "mono THP phosphite [50% THP phosphite]", "values": [{"measurement": "Mg. growth (% of control)", "setting": "[1]; 5 ppm (Active Compound)", "result": "(131) % of control"}, {"measurement": "Mg. growth dry weight", "setting": "[1]; 5 ppm (Active Compound)", "result": 9.3, "unit": "Mg."}, {"measurement": "Mg. growth (% of control)", "setting": "[1]; 15 ppm (Active Compound)", "result": "(39) % of control"}, {"measurement": "Mg. growth dry weight", "setting": "[1]; 15 ppm (Active Compound)", "result": 2.8, "unit": "Mg."}, {"measurement": "Mg. growth (% of control)", "setting": "[1]; 50 ppm (Active Compound)", "result": "(44) % of control"}, {"measurement": "Mg. growth dry weight", "setting": "[1]; 50 ppm (Active Compound)", "result": 3.1, "unit": "Mg."}, {"measurement": "Mg. growth (% of control)", "setting": "[1]; 150 ppm (Active Compound)", "result": "(32) % of control"}, {"measurement": "Mg. growth dry weight", "setting": "[1]; 150 ppm (Active Compound)", "result": 2.3, "unit": "Mg."}, {"measurement": "Mg. growth (% of control)", "setting": "[1]; 500 ppm (Active Compound)", "result": "(23) % of control"}, {"measurement": "Mg. growth dry weight", "setting": "[1]; 500 ppm (Active Compound)", "result": 1.6, "unit": "Mg."}, {"measurement": "ED50", "setting": "[1]", "result": 11, "unit": "ppm"}, {"measurement": "ED90", "setting": "[1]", "result": ">500", "unit": "ppm"}]}, {"compound": "OC[P+](CO)(CO)CO.[Cl-]", "note": "[THP chloride, tetrakis (hydroxymethyl) phosphonium chloride]", "values": [{"measurement": "EDso and ED90 results against T. Rubrum", "setting": "[1]", "result": "substantially similar"}]}, {"compound": "bis THP phosphite [50% bis THP phosphite]", "values": [{"measurement": "Mg. growth (% of control)", "setting": "[1]; 5 ppm (Active Compound)", "result": "(82) % of control"}, {"measurement": "Mg. growth dry weight", "setting": "[1]; 5 ppm (Active Compound)", "result": 8.7, "unit": "Mg."}, {"measurement": "Mg. growth (% of control)", "setting": "[1]; 15 ppm (Active Compound)", "result": "(20) % of control"}, {"measurement": "Mg. growth dry weight", "setting": "[1]; 15 ppm (Active Compound)", "result": 2.1, "unit": "Mg."}, {"measurement": "Mg. growth (% of control)", "setting": "[1]; 50 ppm (Active Compound)", "result": "(0) % of control"}, {"measurement": "Mg. growth dry weight", "setting": "[1]; 50 ppm (Active Compound)", "result": 0, "unit": "Mg."}, {"measurement": "Mg. growth (% of control)", "setting": "[1]; 150 ppm (Active Compound)", "result": "(0) % of control"}, {"measurement": "Mg. growth dry weight", "setting": "[1]; 150 ppm (Active Compound)", "result": 0, "unit": "Mg."}, {"measurement": "Mg. growth (% of control)", "setting": "[1]; 500 ppm (Active Compound)", "result": "(0) % of control"}, {"measurement": "Mg. growth dry weight", "setting": "[1]; 500 ppm (Active Compound)", "result": 0, "unit": "Mg."}, {"measurement": "ED50", "setting": "[1]", "result": 10, "unit": "ppm"}, {"measurement": "ED90", "setting": "[1]", "result": 25, "unit": "ppm"}]}, {"compound": "THP citrate", "values": [{"measurement": "EDso and ED90 results against T. Rubrum", "setting": "[1]", "result": "substantially similar"}]}, {"compound": "OC[P+](CO)(CO)CO", "note": "[THP bromide]", "values": [{"measurement": "EDso and ED90 results against T. Rubrum", "setting": "[1]", "result": "substantially similar"}]}, {"compound": "THP tartrate", "values": [{"measurement": "EDso and ED90 results against T. Rubrum", "setting": "[1]", "result": "substantially similar"}]}, {"compound": "tetrakis(hydroxymethyl) phosphonium sulphate", "values": [{"measurement": "infection of the other fish", "setting": "[2]", "result": "none of the other fish became infected"}, {"measurement": "outcome for the infected fish", "setting": "[2]", "result": "recovered fully"}, {"measurement": "tolerability in fish (feeding, distress)", "setting": "[2]", "result": "no signs of distress"}, {"measurement": "concentration giving a high degree of lethal activity to bacteria", "setting": "[3]", "result": "at least 20 ppm"}, {"measurement": "concentration giving a high degree of lethal activity to the fungi", "setting": "[4]", "result": "100-150 ppm"}]}, {"compound": "THP lactate", "values": [{"measurement": "EDso and ED90 results against T. Rubrum", "setting": "[1]", "result": "substantially similar"}]}, {"compound": "tetrakis(hydroxymethyl) phosphonium sulphate [80% THP Sulphate]", "values": [{"measurement": "Mg. growth (% of control)", "setting": "[1]; 8 ppm (Active Compound)", "result": "(92) % of control"}, {"measurement": "Mg. growth dry weight", "setting": "[1]; 8 ppm (Active Compound)", "result": 7.3, "unit": "Mg."}, {"measurement": "Mg. growth (% of control)", "setting": "[1]; 24 ppm (Active Compound)", "result": "(0) % of control"}, {"measurement": "Mg. growth dry weight", "setting": "[1]; 24 ppm (Active Compound)", "result": 0, "unit": "Mg."}, {"measurement": "Mg. growth (% of control)", "setting": "[1]; 80 ppm (Active Compound)", "result": "(0) % of control"}, {"measurement": "Mg. growth dry weight", "setting": "[1]; 80 ppm (Active Compound)", "result": 0, "unit": "Mg."}, {"measurement": "Mg. growth (% of control)", "setting": "[1]; 240 ppm (Active Compound)", "result": "(0) % of control"}, {"measurement": "Mg. growth dry weight", "setting": "[1]; 240 ppm (Active Compound)", "result": 0, "unit": "Mg."}, {"measurement": "Mg. growth (% of control)", "setting": "[1]; 800 ppm (Active Compound)", "result": "(0) % of control"}, {"measurement": "Mg. growth dry weight", "setting": "[1]; 800 ppm (Active Compound)", "result": 0, "unit": "Mg."}, {"measurement": "ED50", "setting": "[1]", "result": 14, "unit": "ppm"}, {"measurement": "ED90", "setting": "[1]", "result": 20, "unit": "ppm"}]}, {"compound": "THP fluoride", "values": [{"measurement": "EDso and ED90 results against T. Rubrum", "setting": "[1]", "result": "substantially similar"}]}, {"compound": "tetrakis(hydroxymethyl) phosphonium sulphate [THPS]", "values": [{"measurement": "concentration giving a complete in vitro kill of Naegleria", "setting": "[5]", "result": 15, "unit": "ppm"}]}]}
